Data set [1] has as its system rats with corticosterone-induced anxiety-like depression. Kind of data set: Sucrose (sugar water) preference test. The data set is classed as in vivo, rat. The note with it: corticosterone model rats; crocin I 2.25, 4.5, 9 mg/kg intragastric. From the text:
(§1) Anxiety-like depression rat model is induced by chronic induction of corticosterone. Five-week-old SD male rats (8/cage) randomly received 0.45% soluble Corticosterone suspension in β-cyclodextrin. The number of rats in each group has been supplemented in part 1.2 of the manuscript method. Specifically described as “The rats were randomly divided into 7 groups, 8 rats in each group, a total of 56 rats. The number of groups were model group, blank control group, positive drug group, low, middle, and high dose of Crocin I group, and gardenia extract group respectively. The model was established by subcutaneous injection of corticosterone (20 mg⋅kg^−1) for 21 consecutive days. […] The control group and model group were given the same volume of normal saline. Solution preparation methods are described in Supplementary Material S1.1.
(§2) After the model was established. […] Depression was assessed by the preference for sweet foods in healthy rats ([Tan et al., 2020]) Details were provided in the Additional file: SI 1.2-1.3.
1% sucrose aqueous solution was used in the experiment. […] On the day of the test, two bottles containing the same volume of 1% sucrose solution and ordinary water were put into cages, weighed before and after drinking water, and the liquid consumption in the two bottles within 24 hours was calculated.

Data set [2] has the same test system. Kind of data set: Morris water maze test. The data set is classed as in vivo, rat.
Text: Anxiety-like depression rat model is induced by chronic induction of corticosterone. Five-week-old SD male rats (8/cage) randomly received 0.45% soluble Corticosterone suspension in β-cyclodextrin. The number of rats in each group has been supplemented in part 1.2 of the manuscript method. Specifically described as “The rats were randomly divided into 7 groups, 8 rats in each group, a total of 56 rats. The number of groups were model group, blank control group, positive drug group, low, middle, and high dose of Crocin I group, and gardenia extract group respectively. The model was established by subcutaneous injection of corticosterone (20 mg⋅kg^−1) for 21 consecutive days. […] The control group and model group were given the same volume of normal saline. […]
as §2
The water maze round pool was divided into Ⅰ, Ⅱ, Ⅲ, and Ⅳ quadrants. […] The position was placed once along the Ⅰ, Ⅱ, Ⅲ, and Ⅳ quadrants respectively, and the time of finding the platform within 60 seconds was recorded. […] After 5 days, the platform was removed, the animals were put into the pool from the original platform, and the number of rats crossing the target quadrant within 60 seconds was recorded.

Data set [3] concerns hippocampal neurons. Kind of data set: Nissl staining of hippocampus (DG, CA1, CA3). The data set is classed as in vivo, rat. The note with it: for neuronal cell damage in the dentate gyrus region: after administration, corticosterone model rats; for number of Nissl bodies, hippocampal CA3: crocin I low, medium, high dose, positive drug 5 mg/kg; for number of Nissl bodies, hippocampal CA1: high dose crocin I (9 mg/kg), positive control drug 5 mg/kg.
Text: as §1
(§3) The rats were deeply anesthetized with 2% sodium pentobarbital. After 15 min, the rats heart were perfused and fixed with normal saline and 4% paraformaldehyde, respectively. Then the brain tissues of rats in different groups were collected. The brain tissue was cryosectioned at a thickness of 3 μm, and then Nissl staining was performed to analyze the hippocampal region of interest. The staining process is detailed in Supplementary Material S1.4.
After the behavioral evaluation of the rats, the rats were anesthetized and decapitated to take the brain. The brain tissue was fixed with 4% paraformaldehyde for 24 hours. Rinse with normal saline to remove the residual fixative. Dehydration with 30% sucrose solution. It was embedded with an OTC embedding agent, and after it was completely frozen, the shape was trimmed and the sections were frozen. According to the localization map of rat brain sections, the target locations of the hippocampus and prefrontal cortex of rats were selected and sectioned continuously in the coronal plane with a thickness of 3 µm. Stick the slides with adhesive slides and bake the slides in an oven at 37 ℃ for half an hour. The slices were stained with methyl violet dye and rinsed with distilled water. Nissl Differentiation was used to differentiate for 5 s and most of the staining solution was removed. The slides were placed successively in different concentrations of ethanol and gradient dehydration (0%, 50%, 75%, and 95% ethanol, the section and background color should be observed under a microscope during dehydration). After dehydration, the sections were sealed with transparent and neutral gum in anhydrous ethanol Ⅰ, Ⅱ, anhydrous ethanol-xylene (1:1), xylene Ⅰ, and Ⅱ solution, respectively, and observed under a microscope.

Data set [4] concerns cortical neurons. As to the kind of experiment: Nissl staining of prefrontal cortex. The data set is classed as in vivo, rat. Particulars: crocin I low, medium, high doses; Gardenia extract 0.9 g/kg; positive drug 5 mg/kg.
Text: as §1, §3
After the behavioral evaluation of the rats, the rats were anesthetized and decapitated to take the brain. […]

In data set [5] the test system is Serotonin transporter (5-HTT). Kind of data set: ELISA of brain tissue: 5-HTT. The class given is in vivo, rat. How it is done:
(§4) Anxiety-like depression rat model is induced by chronic induction of corticosterone. Five-week-old SD male rats (8/cage) randomly received 0.45% soluble Corticosterone suspension in β-cyclodextrin. The number of rats in each group has been supplemented in part 1.2 of the manuscript method. Specifically described as “The rats were randomly divided into 7 groups, 8 rats in each group, a total of 56 rats. […] The model was established by subcutaneous injection of corticosterone (20 mg⋅kg^−1) for 21 consecutive days. […] The control group and model group were given the same volume of normal saline. Solution preparation methods are described in Supplementary Material S1.1.
(§5) The contents of Serotonin transporter (5-HTT, JW.RA1057), dopamine (DA, JW.RA1621), γ-aminobutyric acid (GABA, JW.RA1389) and noradrenaline (NA, JW.RA2154) in the hippocampus were measured by ELISA kit. The tissue samples were added to PBS low-temperature homogenate according to 1:10, and the homogenate was centrifuged at 10,000 rpm at 4 °C […] for 10 min. The supernatant was taken to detect the content of the sample.

The subject of data set [6] is γ-aminobutyric acid (GABA). Kind of data set: ELISA of brain tissue: GABA. The data set is classed as in vivo, rat. As for the experimental part:
as §4, §5
(In general: ELISA stands for enzyme-linked immunosorbent assay.)

The subject of data set [7] is dopamine (DA). As to the kind of experiment: ELISA of brain tissue: DA. The data set is classed as in vivo, rat. The note with it: for brain DA compared with the control group: crocin I high-dose group, positive drug group. As for the experimental part:
as §4, §5

In data set [8] the test system is noradrenaline (NA). Kind of data set: ELISA of brain tissue: NA. The data set is classed as in vivo, rat. As for the experimental part: as §4, §5
The conditions of data set [9]: no reference given; cited from earlier work.
For data set [10], the system named is Caco-2 cells. Particulars: no method or reference given; cited from earlier work.
Data set [11] in a line: Crocetin content of plasma sample by SERS and liquid phase determination. The note with it: SD, rat, oral, 4.5 mg kg^−1, 0.5 h medium-dose plasma. The class given is in vivo. As for the experimental part:
The samples were analyzed by high performance liquid chromatography.
The treatment of plasma samples is described in Procedure 2.2.3. 50 uL of treated plasma was added into silver nanoparticle solution with an equal volume concentration of 10 mg/mL 50 uL mixed solution was placed on a round quartz sheet with a diameter of 1 cm, […] and the Raman spectrum was detected and recorded. Detection conditions: scanning time 3 s, laser power: 80 mW. Spectra are acquired by Optosky Raman microscopy software.
A standard curve was prepared based on the peak intensity of the characteristic peak at 1,532 cm^−1 and the content was determined, as shown in Figure 10C.

Data set [12] is described as follows: Stability of crocetin in plasma samples. The data set is classed as in vitro ADME, rat. Particulars: within one week at -20°C, n = 6. How it is done: The procedures for precision, stability, limit of quantitation, and sample recovery are described in the Supplementary Material S2.4 Methodological Investigations section.
Plasma samples were collected 30 minutes after administration (n=6). The stability of the samples was calculated within one week at -20°C.

Where [13] appears, read: gardenia extract 0.9 g/kg, positive drug paroxetine hydrochloride 5 mg/kg.

Where a name gives a salt, the structure may show the parent alone. Read-outs that look alike come from different tables or passages of the source.

For the molecule `CC(/C=C/C=C(\C)C(=O)O[C@@H]1O[C@H](CO[C@@H]2O[C@H](CO)[C@@H](O)[C@H](O)[C@H]2O)[C@@H](O)[C@H](O)[C@H]1O)=C\C=C\C=C(C)\C=C\C=C(/C)C(=O)O[C@@H]1O[C@H](CO[C@@H]2O[C@H](CO)[C@@H](O)[C@H](O)[C@H]2O)[C@@H](O)[C@H](O)[C@H]1O` [Crocin I, crocin I], the sugar water preference result in data set [1] was “dose-dependent”. Also, the “improvement of spatial memory ability” value in data set [2] (crocin I 2.25, 4.5, 9 mg/kg) is “dose-dependent”. Besides, the escape latency result in data set [2] (crocin I low, middle and high dose groups (2.25, 4.5, 9 mg/kg)) is listed as “decreased”. For the same molecule, in data set [3], the “neuronal cell damage in the dentate gyrus region” value was “significantly improved”. The “dentate gyrus morphology (angle/shape)” value in data set [3] (crocin I high dose 9 mg/kg) is on record as “significant changes”; in data set [3] (crocin I low dose 2.25 mg/kg), “no significant change”; in [3] (crocin I middle dose 4.5 mg/kg), “significant changes”. Moreover, in data set [3] (gardenia extract 0.9 g/kg), the “number of Nissl bodies, hippocampal CA3” value is on record as “increased in a dependent manner”. In data set [3] (gardenia extract 0.9 g/kg), the “number of Nissl bodies, hippocampal CA1” value is given as “significantly increased”. For the same molecule, the “number of Nissl bodies, dentate gyrus” value in data set [3] (high-dose crocin I (9 mg/kg), gardenia extract 0.9 g/kg) was “increased significantly”. The “number of Nissl bodies, prefrontal cortex” value in data set [4] was “increased”. The “5-HTT expression level in brain tissue” value in data set [5] (High dose crocin I 9 mg/kg) stood at 427.64 ± 7.00 ng/mL; in [5] (Low dose crocin I 2.25 mg/kg, control 238.58, model 573.69) it was 374.76 ± 13.24 ng/mL; in data set [5] (Medium dose crocin I 4.5 mg/kg), 459.21 ± 5.21 ng/mL. Moreover, the “content of 5-HTT compared with the model group” value in data set [5] (crocin I low-, medium-, high-dose, gardenia extract, positive drug, P < 0.001) is listed as “significantly reduced”. The “GABA expression level in brain tissue” value in [6] (High dose crocin I 9 mg/kg) stood at 6.83 ± 0.29 µmol/L; in data set [6] (Low dose crocin I 2.25 mg/kg, control 7.43, model 4.99), 5.28 ± 0.21 µmol/L; in data set [6] (Medium dose crocin I 4.5 mg/kg) it was 5.49 ± 0.29 µmol/L. For the same molecule, in data set [6] (crocin I low-dose group), the “GABA content compared with the model group” value was “no significant difference”. In addition, the “DA expression level in brain tissue” value in [7] (High dose crocin I 9 mg/kg) was determined as 80.22 ± 2.64 nmol/L; in data set [7] (Low dose crocin I 2.25 mg/kg, control 84.66, model 169.17), 147.33 ± 3.72 nmol/L; in data set [7] (Medium dose crocin I 4.5 mg/kg) it was 137.22 ± 1.31 nmol/L. The “brain DA compared with the control group” value in [7] is reported as “no significant difference”. Moreover, the “NA expression level in brain tissue” value in [8] (High dose crocin I 9 mg/kg) is 5.60 ± 0.02 ng/mL; in data set [8] (Low dose crocin I 2.25 mg/kg, control 3.78, model 8.08), 5.99 ± 0.02 ng/mL; in data set [8] (Medium dose crocin I 4.5 mg/kg) it was 6.73 ± 0.18 ng/mL. The “oil-water partition coefficient (logP)” value in [9] is −1.03. The “apparent permeability coefficient Papp” value in data set [10] is recorded as “low”.
Regarding `Fc1ccc([C@@H]2CCNC[C@H]2COc2ccc3c(c2)OCO3)cc1` [Positive, paroxetine hydrochloride, reference compound], the “neuronal cell damage in the dentate gyrus region” value in data set [3] is “significantly improved”. In data set [3] (gardenia extract 0.9 g/kg), the “number of Nissl bodies, hippocampal CA3” value was “no significant increase” and the “number of Nissl bodies, hippocampal CA1” value is “significantly increased”. Besides, in data set [4], the “number of Nissl bodies, prefrontal cortex” value was “increase”. For the same molecule, in data set [6] (setting [13]), the “GABA expression level in brain tissue” value turned out to be 7.34 ± 0.30 µmol/L. For the same molecule, in data set [7], the “brain DA compared with the control group” value is given as “no significant difference”. In addition, the “DA expression level in brain tissue” value in data set [7] (setting [13]) amounted to 81.70 ± 1.94 nmol/L. Further, the “NA expression level in brain tissue” value in [8] (setting [13]) is 4.64 ± 0.09 ng/mL.
`CC(/C=C/C=C(\C)C(=O)O)=C\C=C\C=C(C)\C=C\C=C(/C)C(=O)O` [crocetin]: the concentration at 0.5 h in data set [11] (AgNPs, peak 1,532 cm^-1, read-out: crocetin content in plasma by SERS) worked out at 433 ng/mL; in [11] (same sample, read-out: crocetin content in plasma by liquid phase determination), 486 ng/mL. For the same molecule, the “stability in plasma samples: Accuracy (RE, %)” value is listed as 99.64% in data set [12] (High dose plasma sample 837.96 ng/mL), 97.76% in data set [12] (Low dose plasma sample 292.60 ng/mL) and 97.14% in [12] (Medium dose plasma sample 527.32 ng/mL). The “apparent permeability coefficient Papp” value in data set [10] was “high”.

Values taken from paper PMC11903455 (Frontiers in Pharmacology, 2025).
